The text below walks through data of paper PMC4710522, “A Novel Triazolopyridine-Based Spleen Tyrosine Kinase Inhibitor That Arrests Joint Inflammation” (PLoS ONE, 2016).

The target in one experiment is T1, Adenosine A1 (Homo sapiens, UniProt P30542).
T1 construct: CEREP (contract assay)
Kind of experiment: receptor, ion channel, transporter binding panel (CEREP). How it is done:
(§1) Syk kinase mode of inhibition studies, including parameters described in Fig 1, were conducted on the LC3000 platform by Caliper Life Sciences (Hopkinton, MA) according to standard protocols developed by the supplier. […] Non-kinase enzyme assays and GPCR, ion channel, and transporter binding assays were run by CEREP (France). Non-GLP manual patch clamp hERG assays were run by ChanTest (Cleveland, Ohio). Vivid® Assay kits (Life Technologies) were used to measure the cytochrome P450 inhibition of the compound against CYP3A, CYP2C9, CYP2C19, CYP2D6, and CYP1A2, as described.

A further experiment addresses T2, Adenosine A2a (Homo sapiens, UniProt P29274).
T2 construct: CEREP (contract assay)
Described as above. The method, then: as §1

The next experiment deals with T3, Adenosine A3 (Homo sapiens, UniProt P0DMS8).
T3 construct: CEREP (contract assay)
T3 sequence (P0DMS8 whole entry): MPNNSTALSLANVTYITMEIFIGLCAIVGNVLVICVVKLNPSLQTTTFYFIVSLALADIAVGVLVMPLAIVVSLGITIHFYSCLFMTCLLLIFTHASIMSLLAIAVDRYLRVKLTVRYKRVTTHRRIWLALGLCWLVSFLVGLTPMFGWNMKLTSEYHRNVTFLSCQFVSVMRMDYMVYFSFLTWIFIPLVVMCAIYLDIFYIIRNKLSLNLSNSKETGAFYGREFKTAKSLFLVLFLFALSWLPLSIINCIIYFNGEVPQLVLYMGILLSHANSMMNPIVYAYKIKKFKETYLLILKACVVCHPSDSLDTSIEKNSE
The experiment is described as above. How it is done:
as §1

Experiment [1] has as its system FcεR-dependent β-hexosaminidase release from LAD2 cells. Kind of experiment: LAD2 IgE-dependent beta-hexosaminidase release. It counts as cell-based, human. The method, then:
Cells were cultured in StemPro-34 media (Life Technologies) with 100 ng/ml human SCF (GIBCO) and stimulated as described by supplier. Briefly, LAD2 cells were gently dislodged from culture flask, added to 96-well round bottom plates, and sensitized with 0.05 μg/ml final concentration of NP-IgE (AbD Serotec, Oxford, UK) for 16 hours in a standard tissue culture incubator at 37C with 5% CO2. Cells were washed once and equilibrated in Tyrode’s Buffer (Sigma Chemicals, St. Louis, MO) for 3 hours, preincubated with CC-509 for 30 minutes, and stimulated with 0.1 μg/ml NP16-BSA (Biosearch Technologies, Novato, CA) for 90 minutes. Beta-hexosaminidase activity was measured in supernatants and solubilized cell pellets using p-Nitrophenyl N-acetyl-β-D-Glucosaminide substrate (Sigma Chemicals, St. Louis, MO) to generate a colorimetric signal that was measured in a SpectraMax (Molecular Devices) spectrophotometer at 405 nm. Percent release (% release) was calculated as described in Data Analysis section.
For the TEL-Syk assay, the intensity values for the 700 and 800 channel were exported as text files in ActivityBase (IDBS, Guildford, UK) to derive the ratios that reflect kinase activity. For LAD2 experiments, enzyme activity values were exported as text files into ActivityBase to calculate “percent release” according to the formula: 100* supernatant OD405/ (supernatant OD405 + (pellet OD405*pellet dilution factor)). For the basophil and B-cells assays, flow cytometry data was exported from the FACS Array and processed using FloJo software package (TreeStar, Inc., Ashland, Oregon). For the JAK2 HEL and Ramos NFAT β-lactamase assays, the fluorescence values obtained at 460 nm and 530 nm were exported into ActivityBase to calculate response ratios. […] Evans blue dye extravasation was expressed as mean ± SEM and % inhibition for the test article groups was normalized to the cromolyn positive control. […] The mean data from each group was plotted and either the AUC(day 11–18) or % inhibition on day 18 was calculated. Data is expressed as mean ± SEM of each group with n = 6–12. […]

The test system of a further experiment is Jak2. In words: JAK2 cellular selectivity assay (HEL Irf1-β-lactamase cells). To be noted: for IC50: read-out: IC50, Jak2-dependent cellular system. In kind it is cell-based. The method, then: HEL Irf1-β-lactamase cells were harvested, plated in 384-well plates, and incubated with CC-509 at indicated concentrations for 16 hours in a tissue culture incubator. The cells were then treated with Live Blazer-FRET B/G Substrate solution (Life Technologies, Carlsbad, CA) for 6 hours at room temperature in the dark. Fluorescence readings at 460 nm and 530 nm were taken using the Flexstation II (Molecular Devices). Myeloid colony forming assays to assess Jak2 cellular activity were conducted at ReachBio (Seattle, WA).
For the TEL-Syk assay, the intensity values for the 700 and 800 channel were exported as text files in ActivityBase (IDBS, Guildford, UK) to derive the ratios that reflect kinase activity. For LAD2 experiments, enzyme activity values were exported as text files into ActivityBase to calculate “percent release” according to the formula: 100* supernatant OD405/ (supernatant OD405 + (pellet OD405*pellet dilution factor)). For the basophil and B-cells assays, flow cytometry data was exported from the FACS Array and processed using FloJo software package (TreeStar, Inc., Ashland, Oregon). For the JAK2 HEL and Ramos NFAT β-lactamase assays, the fluorescence values obtained at 460 nm and 530 nm were exported into ActivityBase to calculate response ratios. For the neutrophil, macrophage, KDR, and JAK1/3 assays, raw values were exported into ActivityBase to calculate percent inhibition. All IC50 calculations were generated using XLfit (IDBS, Guildford, UK) algorithm 205 within Excel. For PCA, the OD from the saline injected site was subtracted from the OD from the anti-DNP IgE injected site. Evans blue dye extravasation was expressed as mean ± SEM and % inhibition for the test article groups was normalized to the cromolyn positive control. For the CIA model paw measurements (left and right ankle diameter) were taken for each individual animal and averaged. The mean data from each group was plotted and either the AUC(day 11–18) or % inhibition on day 18 was calculated. Data is expressed as mean ± SEM of each group with n = 6–12. […]

SMILES strings stand for the structures. Where two headings read alike, the source gives them in different places.

T1 sequence (P30542 whole entry): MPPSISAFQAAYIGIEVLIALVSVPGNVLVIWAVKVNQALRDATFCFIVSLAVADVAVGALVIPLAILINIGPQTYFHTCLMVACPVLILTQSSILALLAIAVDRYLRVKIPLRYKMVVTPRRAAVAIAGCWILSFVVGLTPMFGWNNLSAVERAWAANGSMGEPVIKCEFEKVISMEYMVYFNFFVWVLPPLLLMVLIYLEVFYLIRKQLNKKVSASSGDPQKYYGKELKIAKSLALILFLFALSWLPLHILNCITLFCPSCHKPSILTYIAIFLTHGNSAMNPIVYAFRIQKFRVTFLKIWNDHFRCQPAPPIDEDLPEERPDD
T2 sequence (P29274 whole entry): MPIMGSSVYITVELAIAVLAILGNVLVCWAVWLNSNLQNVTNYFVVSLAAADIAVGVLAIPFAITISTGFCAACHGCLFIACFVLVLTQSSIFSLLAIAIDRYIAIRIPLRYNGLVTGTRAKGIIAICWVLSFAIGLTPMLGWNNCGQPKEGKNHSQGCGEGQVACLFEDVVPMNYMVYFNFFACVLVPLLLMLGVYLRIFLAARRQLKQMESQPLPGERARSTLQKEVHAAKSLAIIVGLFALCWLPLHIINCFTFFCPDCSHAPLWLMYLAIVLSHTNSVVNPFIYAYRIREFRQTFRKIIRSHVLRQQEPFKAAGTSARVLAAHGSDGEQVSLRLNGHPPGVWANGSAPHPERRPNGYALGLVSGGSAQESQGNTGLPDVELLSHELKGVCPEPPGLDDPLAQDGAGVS

The term inhibition denotes how much of the control response was suppressed. Usually IC50 stands for the concentration at which inhibition is half-maximal. On to `c1cc(CC2CCOCC2)n2nc(Nc3ccc4c(NC5CCOCC5)n[nH]c4c3)nc2c1` [CC-509, [3-(2H-3,4,5,6-tetrahydropyran-4-ylamino)(1H-indazol-6-yl)][5-(2H-3,4,5,6-tetrahydropyran-4-ylmethyl)(2H-1,2,4-triazolo[1,5-a]pyridin-2-yl)]amine], for which the inhibition at 10 µM on Adenosine A1 came out at 89%; at Adenosine A2a, 96%; at Adenosine A3, 84%. Besides, the IC50 in experiment [1] (Homo sapiens, LAD2, mean ± SD, minimum n = 3, read-out: IC50, IgE-mediated β-hexosaminidase release) came out at 0.22 ± 0.13 µM; in experiment [1] (Homo sapiens, LAD2 FcεR, curve shown in figure, read-out: IC50 printed in Fig 3C panel), 0.33 µM; in the experiment with Jak2, 5.45 ± 0.59 µM. In addition, the “fold less potent than R406, Jak2 cellular” value with Jak2 came to 1.7 fold.
Take `COc1cc(Nc2ncc(F)c(Nc3ccc4c(n3)NC(=O)C(C)(C)O4)n2)cc(OC)c1OC` [R406, reference compound]: the IC50 in experiment [1] (mean ± SD, minimum n = 3, read-out: IC50, IgE-mediated β-hexosaminidase release) stood at 0.11 ± 0.07 µM; with Jak2 it was […].
